The values below come from US10301295B2, “Herbicidal compounds” (Syngenta Participations AG, priority 2014, dated 2019).

Holding throughout (type): in vivo
The test system of one experiment is wheat. Briefly: Post-emergence herbicidal activity against cereal crops (wheat) +/- safener, crop selectivity. Particulars: 100%=total damage to plant, 0%=no damage; for Post-emergence herbicidal activity against wheat (percentage phytotoxicity), +CQC: 250 g/ha, plus safener cloquintocet-mexyl (CQC) applied at 50 g/ha; for percent phytotoxicity (crop damage) to wheat at 250 g/ha: Triticum aestivum, 360 h, without safener, read-out: Post-emergence herbicidal activity against wheat (percentage phytotoxicity), Wheat - CQC. In short, it runs like this:
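Test plants raised in pots in a glasshouse (24/18 °C warm or 20/16 °C cool species day/night, 16 h light, 65% humidity) and treated post-emergence about 12 days after sowing. Visual percentage phytotoxicity scored 15 days after application (0% = no damage, 100% = total damage).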

The subject of experiment [1] is Alopecurus myosuroides (ALOMY). Kind of experiment: Glasshouse assay for herbicidal activity, pre-/post-emergence (percentage phytotoxicity). Particulars: Alopecurus myosuroides, Rate 250 g/ha, 100%=total damage, 0%=no damage. In short, it runs like this:
(§1)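 Test plants are sown in pots of standard soil, held one day for pre-emergence or about twelve days for post-emergence, then treated. They grow on under glasshouse control with twice-daily watering, and damage is rated by eye as a percentage at 15 (post) or 20 (pre) days after application.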

For a further experiment, the system named is Avena fatua (AVEFA). Described as above. Conditions: Avena fatua, Rate 250 g/ha, 100%=total damage, 0%=no damage. In short, it runs like this:
as §1

The test system of another experiment is Lolium perenne (LOLPE). Described as above. Particulars: Lolium perenne, Rate 250 g/ha, 100%=total damage, 0%=no damage. Put shortly:
as §1

Experiment [2] deals with Echinochloa crus-galli (ECHCG). Described as above. Conditions: Echinochloa crus-galli, Rate 250 g/ha, 100%=total damage, 0%=no damage. In short, it runs like this: as §1
Setting [3] is: 360 h, post-emergence, visual assessment 15 DAA, read-out: Post-emergence herbicidal activity (percentage phytotoxicity), ALOMY POST.
Setting [4] is: 480 h, pre-emergence, visual assessment 20 DAA, read-out: Pre-emergence herbicidal activity (percentage phytotoxicity), ALOMY PRE.
Setting [5] is: post-emergence, 360 h, post-emergence, visual assessment 15 DAA, read-out: Post-emergence herbicidal activity (percentage phytotoxicity), AVEFA POST.
Where [6] appears, read: pre-emergence, 480 h, pre-emergence, visual assessment 20 DAA, read-out: Pre-emergence herbicidal activity (percentage phytotoxicity), AVEFA PRE.
[7] abbreviates: post-emergence, 360 h, post-emergence, visual assessment 15 DAA, read-out: Post-emergence herbicidal activity (percentage phytotoxicity), LOLPE POST.
Setting [8] is: pre-emergence, 480 h, pre-emergence, visual assessment 20 DAA, read-out: Pre-emergence herbicidal activity (percentage phytotoxicity), LOLPE PRE.
Setting [9] is: post-emergence, 360 h, post-emergence, visual assessment 15 DAA, read-out: Post-emergence herbicidal activity (percentage phytotoxicity), ECHCG POST.
Setting [10] is: pre-emergence, 480 h, pre-emergence, visual assessment 20 DAA, read-out: Pre-emergence herbicidal activity (percentage phytotoxicity), ECHCG PRE.

Where two headings read alike, the source gives them in different places.

For `Cc1cc(-n2cc(Cl)cn2)cc(C)c1C1C(=O)CC(CCNC(=O)NOC(C)(C)C)C1=O` (centres unmarked) [Compound A25], the “Post-emergence herbicidal activity against wheat (percentage phytotoxicity), +CQC” value in the experiment on wheat is 0%. Moreover, the percent phytotoxicity (crop damage) to wheat at 250 g/ha with wheat is 60%. In addition, the pest or weed control at 250 g/ha amounted to 70% in experiment [1] (setting [3]); 30% in experiment [1] (setting [4]); 80% in the experiment on Avena fatua (AVEFA) (setting [5]); 0% with Avena fatua (AVEFA) (setting [6]); 20% in the experiment with Lolium perenne (LOLPE) (setting [7]); 30% with Lolium perenne (LOLPE) (setting [8]). Besides, the values for the pest or weed control at 250 g/ha in experiment [2] (setting [9]) and in experiment [2] (setting [10]) were 90% and 50%, respectively.
Consider `Cc1cc(-n2cc(Cl)cn2)cc(C)c1C1C(=O)CC(CCNC(=O)Nc2ccc(F)cn2)C1=O` (centres unmarked) [Compound A28], for which, in the experiment on wheat, the “Post-emergence herbicidal activity against wheat (percentage phytotoxicity), +CQC” value was 20%. The percent phytotoxicity (crop damage) to wheat at 250 g/ha in the experiment on wheat is 80%. Moreover, the pest or weed control at 250 g/ha in experiment [1] (setting [3]) was 90%; in experiment [1] (setting [4]) it was 70%; in the experiment with Avena fatua (AVEFA) (setting [5]), 100%; in the experiment with Avena fatua (AVEFA) (setting [6]), 70%; in the experiment with Lolium perenne (LOLPE) (setting [7]), 80%; in the experiment with Lolium perenne (LOLPE) (setting [8]), 70%. The pest or weed control at 250 g/ha in experiment [2] (setting [9]) and in experiment [2] (setting [10]) was 90% throughout.
